Target: T1, PLK1 (Homo sapiens, UniProt P53350)
T1 construct: Full-length, active GST-PLK1 is purified from Sf9 insect cells; made in house; host or cells: Sf9 insect cells
Assay: Biochemical Characterization Assay: HTRF kinase assay, GST-PLK1 phosphorylation of GST-p53
Conditions: GST-PLK1, GST-p53 substrate
Method in brief: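 HTRF read-out of p53 phosphorylation: after EDTA stop, anti-phospho-p53 antibody bound 30 min at 37 °C in HEPES pH 7 buffer, with Eu-anti-rabbit/APC-anti-GST detection. Kinase step used full-length Sf9-expressed GST-PLK1 (3 ug/mL) and E. coli GST-p53 substrate, 35 min at 37 °C.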

T1 sequence (P53350 whole entry): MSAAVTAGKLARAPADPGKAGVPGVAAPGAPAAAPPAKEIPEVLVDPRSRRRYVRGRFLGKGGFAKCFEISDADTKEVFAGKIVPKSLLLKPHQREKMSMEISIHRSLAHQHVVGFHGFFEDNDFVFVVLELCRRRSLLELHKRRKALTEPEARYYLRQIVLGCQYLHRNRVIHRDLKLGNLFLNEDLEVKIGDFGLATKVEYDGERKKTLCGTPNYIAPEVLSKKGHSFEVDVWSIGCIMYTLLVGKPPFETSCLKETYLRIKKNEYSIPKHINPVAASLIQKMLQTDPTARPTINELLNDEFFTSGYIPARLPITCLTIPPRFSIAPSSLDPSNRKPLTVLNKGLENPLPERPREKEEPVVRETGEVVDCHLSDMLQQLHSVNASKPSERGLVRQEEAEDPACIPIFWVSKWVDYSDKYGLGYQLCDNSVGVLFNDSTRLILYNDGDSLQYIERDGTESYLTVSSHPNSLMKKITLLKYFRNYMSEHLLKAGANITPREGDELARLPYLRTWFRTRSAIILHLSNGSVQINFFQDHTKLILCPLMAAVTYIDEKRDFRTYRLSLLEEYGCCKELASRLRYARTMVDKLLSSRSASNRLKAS

IC50, 1 to 50 nM:
COc1cc(C(=O)NC2CCOCC2)c(F)cc1Nc1ncc2c(n1)N(C1CCCC1)CC(F)(F)C(=O)N2C [Example I-173, 4-(9-cyclopentyl-7,7-difluoro-5-methyl-6-oxo-6,7,8,9-tetrahydro-5H-pyrimido[4,5-b][1,4]diazepin-2-ylamino)-2-fluoro-5-methoxy-N-(tetrahydropyran-4-yl)-benzamide]
COc1cc(C(=O)NCCN(C)C)c(F)cc1Nc1ncc2c(n1)N(C1CCCC1)CC(F)(F)C(=O)N2C [Example I-174, 4-(9-cyclopentyl-7,7-difluoro-5-methyl-6-oxo-6,7,8,9-tetra-hydro-5H-pyrimido[4,5-b][1,4]diazepin-2-ylamino)-N-(3-dimethylamino-ethyl)-2-fluoro-5-methoxy-benzamide]
COc1cc(C(=O)NC2CCNCC2)c(F)cc1Nc1ncc2c(n1)N(C1CCCC1)CC(F)(F)C(=O)N2C [Example I-178, 4-(9-cyclopentyl-7,7-difluoro-5-methyl-6-oxo-6,7,8,9-tetrahydro-5H-pyrimido[4,5-b][1,4]diazepin-2-ylamino)-2-fluoro-5-methoxy-N-piperidin-4-yl-benzamide]
CN1CCC(NC(=O)c2ccc(Nc3ncc4c(n3)N(C3CCCC3)CC(F)(F)C(=O)N4C)c(Cl)c2)CC1 [Example I-179, 3-chloro-4-(9-cyclopentyl-7,7-difluoro-5-methyl-6-oxo-6,7,8,9-tetrahydro-5H-pyrimido[4,5-b][1,4]diazepin-2-ylamino)-N-(1-methyl-piperidin-4-yl)-benzamide]
CC(C)Oc1cc(C(=O)NC2CCN(C)CC2)ccc1Nc1ncc2c(n1)N(C1CCCC1)CC(F)(F)C(=O)N2C [Example I-180, 4-(9-cyclopentyl-7,7-difluoro-5-methyl-6-oxo-6,7,8,9-tetrahydro-5H-pyrimido[4,5-b][1,4]diazepin-2-ylamino)-3-isopropoxy-N-(1-methyl-piperidin-4-yl)-benzamide]
CN1CCC(NC(=O)c2ccc(Nc3ncc4c(n3)N(C3CCCC3)CC(F)(F)C(=O)N4C)c(OC(F)(F)F)c2)CC1 [Example I-181, 4-(9-cyclopentyl-7,7-difluoro-5-methyl-6-oxo-6,7,8,9-tetrahydro-5H-pyrimido[4,5-b][1,4]diazepin-2-ylamino)-N-(1-methyl-piperidin-4-yl)-3-trifluoromethoxy-benzamide]
CN1CCC(NC(=O)c2ccc(Nc3ncc4c(n3)N(C3CCCC3)CC(F)(F)C(=O)N4C)c(F)c2)CC1 [Example I-183, 4-(9-cyclopentyl-7,7-difluoro-5-methyl-6-oxo-6,7,8,9-tetrahydro-5H-pyrimido[4,5-b][1,4]diazepin-2-ylamino)-3-fluoro-N-(1-methyl-piperidin-4-yl)-benzamide]
Cc1cc(C(=O)NC2CCN(C)CC2)ccc1Nc1ncc2c(n1)N(C1CCCC1)CC(F)(F)C(=O)N2C [Example I-185, 4-(9-cyclopentyl-7,7-difluoro-5-methyl-6-oxo-6,7,8,9-tetrahydro-5H-pyrimido[4,5-b][1,4]diazepin-2-ylamino)-3-methyl-N-(1-methyl-piperidin-4-yl)-benzamide]
CCN1CCC(NC(=O)c2ccc(Nc3ncc4c(n3)N(C3CCCC3)CC(F)(F)C(=O)N4C)c(C)c2)CC1 [Example I-186, 4-(9-cyclopentyl-7,7-difluoro-5-methyl-6-oxo-6,7,8,9-tetrahydro-5H-pyrimido[4,5-b][1,4]diazepin-2-ylamino)-N-(1-ethyl-piperidin-4-yl)-3-methyl-benzamide]
Cc1cc(C(=O)NC2CCOCC2)ccc1Nc1ncc2c(n1)N(C1CCCC1)CC(F)(F)C(=O)N2C [Example I-187, 4-(9-cyclopentyl-7,7-difluoro-5-methyl-6-oxo-6,7,8,9-tetrahydro-5H-pyrimido[4,5-b][1,4]diazepin-2-ylamino)-3-methyl-N-(tetrahydro-pyran-4-yl)-benzamide]
Cc1cc(C(=O)NCCN(C)C)ccc1Nc1ncc2c(n1)N(C1CCCC1)CC(F)(F)C(=O)N2C [Example I-188, 4-(9-cyclopentyl-7,7-difluoro-5-methyl-6-oxo-6,7,8,9-tetrahydro-5H-pyrimido[4,5-b][1,4]diazepin-2-ylamino)-N-(2-dimethylamino-ethyl)-3-methyl-benzamide]
Cc1cc(C(=O)NCCCN(C)C)ccc1Nc1ncc2c(n1)N(C1CCCC1)CC(F)(F)C(=O)N2C [Example I-189, 4-(9-cyclopentyl-7,7-difluoro-5-methyl-6-oxo-6,7,8,9-tetrahydro-5H-pyrimido[4,5-b][1,4]diazepin-2-ylamino)-N-(3-dimethylamino-propyl)-3-methyl-benzamide]
CNC(=O)c1ccc(Nc2ncc3c(n2)N(C2CCCC2)CC(F)(F)C(=O)N3C)c(C)c1 [Example I-190, 4-(9-cyclopentyl-7,7-difluoro-5-methyl-6-oxo-6,7,8,9-tetrahydro-5H-pyrimido[4,5-b][1,4]diazepin-2-ylamino)-3,N-dimethyl-benzamide]
Cc1cc(C(=O)NC2CCN(C(=O)OC(C)(C)C)CC2)ccc1Nc1ncc2c(n1)N(C1CCCC1)CC(F)(F)C(=O)N2C [Example I-191, 4-[4-(9-cyclopentyl-7,7-difluoro-5-methyl-6-oxo-6,7,8,9-tetrahydro-5H-pyrimido[4,5-b][1,4]diazepin-2-ylamino)-3-methyl-benzoylamino]-piperidine-1-carboxylic acid tert-butyl ester]
Cc1cc(C(=O)NC2CCNCC2)ccc1Nc1ncc2c(n1)N(C1CCCC1)CC(F)(F)C(=O)N2C [Example I-192, 4-(9-cyclopentyl-7,7-difluoro-5-methyl-6-oxo-6,7,8,9-tetrahydro-5H-pyrimido[4,5-b][1,4]diazepin-2-ylamino)-3-methyl-N-piperidin-4-yl-benzamide]
Cc1cc(C(N)=O)ccc1Nc1ncc2c(n1)N(C1CCCC1)CC(F)(F)C(=O)N2C [Example I-193, 4-(9-cyclopentyl-7,7-difluoro-5-methyl-6-oxo-6,7,8,9-tetrahydro-5H-pyrimido[4,5-b][1,4]diazepin-2-ylamino)-3-methyl-benzamide]
CCc1cc(C(=O)NC2CCN(C)CC2)ccc1Nc1ncc2c(n1)N(C1CCCC1)CC(F)(F)C(=O)N2C [Example I-195, 4-(9-cyclopentyl-7,7-difluoro-5-methyl-6-oxo-6,7,8,9-tetrahydro-5H-pyrimido[4,5-b][1,4]diazepin-2-ylamino)-3-ethyl-N-(1-methyl-piperidin-4-yl)-benzamide]
CCc1cc(C(=O)NC2CCN(CC)CC2)ccc1Nc1ncc2c(n1)N(C1CCCC1)CC(F)(F)C(=O)N2C [Example I-196, 4-(9-cyclopentyl-7,7-difluoro-5-methyl-6-oxo-6,7,8,9-tetrahydro-5H-pyrimido[4,5-b][1,4]diazepin-2-ylamino)-3-ethyl-N-(1-ethyl-piperidin-4-yl)-benzamide]
CCc1cc(C(=O)NC2CCOCC2)ccc1Nc1ncc2c(n1)N(C1CCCC1)CC(F)(F)C(=O)N2C [Example I-197, 4-(9-cyclopentyl-7,7-difluoro-5-methyl-6-oxo-6,7,8,9-tetrahydro-5H-pyrimido[4,5-b][1,4]diazepin-2-ylamino)-3-ethyl-N-(tetrahydro-pyran-4-yl)-benzamide]
